# Data published in patent US6989270B1, “Using polyamide nucleic acid oligomers to engender a biological response” (Mayo Foundation for Medical Education and Research, priority 1997, dated 2006).
# Read-outs that look alike come from different tables or passages of the source.
# How the values were obtained:
# [1] = tested on: [125I]neurotensin binding sites (NT receptors); experiment: [125I]neurotensin binding assay, small intestine (jejunum and ileum) membranal preparations of treated rats; assay type: in vivo, rat
# Method: Binding assays were performed using procedures similar to those described elsewhere (Kitabgi P. et al., Peptides 5:917-923 (1984) and Ahmad S. et al., Biochim et Biophys Acta 896:224-238 (1987)).
# Table II contains the results from an [^125I]neurotensin binding assay using small intestine (jejunum and ileum) membranal preparations from NTR1-PNA treated and untreated rats. The small intestine tissue was harvested from the rats 1 day after receiving a single i.p. injection of NTR1-PNA oligomers as described above. Untreated rats were used to derive control values for the percent control dpm and percent control receptors (fmol/mg). Thus, the values for untreated rats were set to 100 percent.
# In addition to determining the influence of […] NTR1-PNA oligomers on anti-nociception and hypothermia, the effects of these oligomers on NT binding sites were determined using the NT receptor binding assay described in Example 1.
# [2] = Gel shift assay measuring PNA oligomer in tissue; assay type: in vivo
# Method: To confirm the presence and measure the amount of PNA in brain after extracranial administration, a sensitive gel shift assay was developed. This assay involves using a radioactively-labeled oligonucleotide having sequence specificity for a PNA oligomer as a probe to detect that PNA oligomer. Briefly, a sample is prepared and incubated with a probe. If the sample contains a PNA oligomer having sequence specificity for the probe, then the probe can bind that PNA oligomer. This bound form of the probe then can be detected and quantified using gel electrophoresis since a probe bound to a PNA oligomer migrates differently than an unbound probe on a gel.
# Brain extracts were prepared from either untreated animals or animals treated intraperitoneally with 10 mg/kg of the AS-NTR1-PNA oligomer. For the treated animals, brain tissue was collected 8 hours post treatment. To prepare brain extracts, flash frozen brain tissue (minus the PAG and hypothalamus) were homogenized in 1 mM Tris (pH 4.0), 0.1 mM EDTA at a concentration of 1.5 ml/g wet weight of tissue. This acidic condition can protonate cytosine bases as well as the N-terminal amino group of the PNA oligomer, which presumably increases the solubility of the PNA oligomer and allows the PNA oligomer to be found in an aqueous phase during the later extraction step. Samples were boiled for five minutes. This boiling step can free the bound PNA oligomer from its target sequence, and inactivate nucleases that may interfere with the integrity of the DNA oligonucleotide probe. Then, the samples were spun two to three times at 35,600×g for 10 minutes each to pellet insoluble material and the supernatants collected. Supernatants were extracted with 10 volumes of CHCl3:MeOH (2:1 v/v) to remove glycolipids that may interfere with gel electrophoresis, and spun briefly at 1,000×g to separate phases. For the standard curves using known amounts of a PNA oligomer, the PNA oligomer was added to the supernatant before the CHCl3:MeOH extraction. The supernatants were collected in a fresh tube, lyophilized, and resuspended in 30 to 40 μl of water.
# Once prepared, approximately 400 pg of probe was added to each 30 to 40 μl sample. To prepare the probe, a DNA oligonucleotide (Gibco BRL, Gaithersburg, Md.) complementary to the AS-NTR1-PNA oligomer was end-labeled using T4 Polynucleotide Kinase (Gibco BRL) and [Gamma-^32P]ATP or [Gamma-^33P]ATP (New England Nuclear, Boston, Mass.) according to manufacturer's instructions. […]
# After adding the probe, the samples were incubated at room temperature for 20 minutes. […] Signal was detected using a Storm860 Phosphoimager (Molecular Dynamics, Sunnyvale, Calif.) and data were analyzed using ImageQuant Software (Molecular Dynamics, Sunnyvale, Calif.). […]
# [3] = tested on: neurotensin receptor-1 (NTR1); experiment: Hot plate test of NT-mediated anti-nociception in PNA-treated rats; assay type: in vivo, rat
# [4] = tested on: [125I]neurotensin binding sites (NT receptors); experiment: [125I]neurotensin binding assay, PAG and hypothalamus homogenates of treated rats; assay type: in vivo, rat; conditions: for number of receptors (mean ± SEM in fmol/mg wet wt.) / percent of control / Kd: 24 hours after single oral 10 mg/kg; for Kd: [125I]neurotensin, read-out: KD (mean ± SEM in nM)
# morphine binding sites = experiment: [3H]morphine binding in rest of brain and small intestine after i.p. AS-NTR1-PNA (Example 8); conditions: for Binding (% change vs control) Morphine: 24 hours after i.p. injection
# [5] = small intestine, 1 day after single i.p. injection (3 mg/kg)
substance,measurement,setting,value
"NTR1-PNA: 12-mer antisense PNA oligomer to rat NTR1 coding region, 5′-CATTGCTCAAAC-3′ (SEQ ID NO: 1) (all peptide nucleic acid (PNA))",number of receptors (mean ± SEM in fmol/mg wet wt.),"[1]; Small intestine, 24 hours after single oral 10 mg/kg",Below Detection
same,% Control dpm's,[1]; [5],41 % Control
same,% Control receptors,[1]; [5],2 % Control
same,NT binding sites,"[1]; small intestine, 24 hours after oral 10 mg/kg",completely abolished
same,fewer [125I]neurotensin binding sites than untreated rats,"[1]; small intestine, one day after i.p. treatment",98%
same,integrity of PNA oligomer recovered from brain (gel mobility shift),[2]; 8 hours after i.p. 10 mg/kg,unaltered
same,presence of PNA oligomer in brain extracts,"[2]; 8 hours after i.p. 10 mg/kg, perfused and non-perfused animals",detected in brain extracts prepared from treated animals
same,concentration of PNA oligomer within brain,"[2]; 8 hours after intraperitoneal 10 mg/kg, corrected for recovery",2.4±0.3 ng/whole brain
same,"presence of PNA oligomer in brain, heart, kidney, liver, spleen and blood","[2]; tissues 2 hours after i.p. 10 mg/kg (perfused), blood 5 minutes after i.v. 10 mg/kg",detected in each tissue
same,duration of complete lack of NT responsiveness,[3]; after single oral 10 mg/kg,at least 48 hours
same,ED50 for reducing NT anti-nociception,"[3]; intraperitoneal dose-response, one batch of PNA",2.6 mg/kg
same,responsiveness to NT challenge (anti-nociception and hypothermia),[3]; one day after single i.p. injection of 3 mg/kg,unable to respond to NT challenge
same,NT responsiveness,"[3]; rats given single oral 10 mg/kg, Table III",LOST
same,hypothermic and anti-nociceptive responses to NT,"[3]; twelve hours after 10 mg/kg by gastric intubation (oral), nine rats",either completely abolished (8/9) or nearly completely abolished (1/9)
same,% Control dpm's,"[4]; Hypothalamus tissue, untreated control, PNA injected into PAG",55 % Control
same,number of receptors (mean ± SEM in fmol/mg wet wt.),[4]; Hypothalamus,240 ± 30 fmol/mg wet wt.
same,percent of control,[4]; Hypothalamus,51%
same,NT binding sites reduced,"[4]; PAG and hypothalamus, 24 hours after oral 10 mg/kg",50%
same,number of receptors (mean ± SEM in fmol/mg wet wt.),[4]; PAG,140 ± 20 fmol/mg wet wt.
same,percent of control,[4]; PAG,48%
same,Kd,[4]; PAG of treated rats,8.2 ± 0.7 nM
same,Kd,[4]; hypothalamus of treated rats,7 ± 0.8 nM
same,Binding (% change vs control) Morphine,morphine binding sites; Rest of Brain,2 ± 2 % change vs control
same,Binding (% change vs control) Morphine,morphine binding sites; Small Intestine,−7 ± 8 % change vs control
same,number of morphine binding sites compared to controls,morphine binding sites; rest of brain or small intestine,no significant difference
